In ChEMBL document CHEMBL4033619, “Autophagy antagonizes apoptosis induced by flavan enantiomers from Daphne giraldii in hepatic carcinoma cells in vitro” (Eur J Med Chem, 2017):

These molecules were tested on A549 (assay: Growth inhibition of human A549 cells after 48 hrs by MTT assay).
Format: functional, cell-based

Compound	growth inhibition (GI)
CC(C)=CCc1c([C@H]2CCc3ccc(O)cc3O2)ccc(O)c1O [KAZINOL U]	Dose-dependent effect
CC1(C)CCc2c([C@@H]3CCc4ccc(O)cc4O3)ccc(O)c2O1	Dose-dependent effect
CC(C)=CCc1c([C@@H]2CCc3ccc(O)cc3O2)cc2c(c1O)OC(C)(C)C=C2 [KAZINOL B]	Dose-dependent effect
CC1(C)CCc2c([C@H]3CCc4ccc(O)cc4O3)ccc(O)c2O1	Dose-dependent effect
CC1(C)C=Cc2c([C@@H]3CCc4ccc(O)cc4O3)ccc(O)c2O1	Dose-dependent effect
CC1(C)C=Cc2c([C@H]3CCc4ccc(O)cc4O3)ccc(O)c2O1	Dose-dependent effect

The molecules below were run on MCF7 (assay: Cytotoxicity against human MCF7 cells by MTT assay).
Format: functional, cell-based

Compound	IC50
O=c1[nH]cc(F)c(=O)[nH]1 [FLUOROURACIL]	30 µM
CC(C)=CCc1c([C@H]2CCc3ccc(O)cc3O2)ccc(O)c1O [KAZINOL U]	> 100 µM
CC1(C)CCc2c([C@@H]3CCc4ccc(O)cc4O3)ccc(O)c2O1	> 100 µM
CC(C)=CCc1c([C@@H]2CCc3ccc(O)cc3O2)cc2c(c1O)OC(C)(C)C=C2 [KAZINOL B]	> 100 µM
CC1(C)CCc2c([C@H]3CCc4ccc(O)cc4O3)ccc(O)c2O1	> 100 µM
CC1(C)C=Cc2c([C@@H]3CCc4ccc(O)cc4O3)ccc(O)c2O1	> 100 µM
CC1(C)C=Cc2c([C@H]3CCc4ccc(O)cc4O3)ccc(O)c2O1	> 100 µM

These molecules were tested on HepG2 (assay: Cytotoxicity against human HepG2 cells by MTT assay).
Format: functional, cell-based

Compound	IC50
O=c1[nH]cc(F)c(=O)[nH]1 [FLUOROURACIL]	32.6 µM
CC(C)=CCc1c([C@H]2CCc3ccc(O)cc3O2)ccc(O)c1O [KAZINOL U]	> 100 µM
CC1(C)CCc2c([C@@H]3CCc4ccc(O)cc4O3)ccc(O)c2O1	> 100 µM
CC(C)=CCc1c([C@@H]2CCc3ccc(O)cc3O2)cc2c(c1O)OC(C)(C)C=C2 [KAZINOL B]	58.4 µM
CC1(C)CCc2c([C@H]3CCc4ccc(O)cc4O3)ccc(O)c2O1	> 100 µM
CC1(C)C=Cc2c([C@@H]3CCc4ccc(O)cc4O3)ccc(O)c2O1	> 100 µM
CC1(C)C=Cc2c([C@H]3CCc4ccc(O)cc4O3)ccc(O)c2O1	> 100 µM

Each molecule was assayed on MCF7 (assay: Growth inhibition of human MCF7 cells after 48 hrs by MTT assay).
Format: functional, cell-based

Compound	growth inhibition (GI)
CC(C)=CCc1c([C@H]2CCc3ccc(O)cc3O2)ccc(O)c1O [KAZINOL U]	Dose-dependent effect
CC1(C)CCc2c([C@@H]3CCc4ccc(O)cc4O3)ccc(O)c2O1	Dose-dependent effect
CC(C)=CCc1c([C@@H]2CCc3ccc(O)cc3O2)cc2c(c1O)OC(C)(C)C=C2 [KAZINOL B]	Dose-dependent effect
CC1(C)CCc2c([C@H]3CCc4ccc(O)cc4O3)ccc(O)c2O1	Dose-dependent effect
CC1(C)C=Cc2c([C@@H]3CCc4ccc(O)cc4O3)ccc(O)c2O1	Dose-dependent effect
CC1(C)C=Cc2c([C@H]3CCc4ccc(O)cc4O3)ccc(O)c2O1	Dose-dependent effect

The molecules below were run on HepG2 (assay: Growth inhibition of human HepG2 cells after 48 hrs by MTT assay).
Format: functional, cell-based

Compound	growth inhibition (GI)
CC(C)=CCc1c([C@H]2CCc3ccc(O)cc3O2)ccc(O)c1O [KAZINOL U]	Dose-dependent effect
CC1(C)CCc2c([C@@H]3CCc4ccc(O)cc4O3)ccc(O)c2O1	Dose-dependent effect
CC(C)=CCc1c([C@@H]2CCc3ccc(O)cc3O2)cc2c(c1O)OC(C)(C)C=C2 [KAZINOL B]	Dose-dependent effect
CC1(C)CCc2c([C@H]3CCc4ccc(O)cc4O3)ccc(O)c2O1	Dose-dependent effect
CC1(C)C=Cc2c([C@@H]3CCc4ccc(O)cc4O3)ccc(O)c2O1	Dose-dependent effect
CC1(C)C=Cc2c([C@H]3CCc4ccc(O)cc4O3)ccc(O)c2O1	Dose-dependent effect

What follows are molecules tested on Hep 3B2 (assay: Cytotoxicity against human Hep3B cells by MTT assay).
Format: functional, cell-based

Compound	IC50
O=c1[nH]cc(F)c(=O)[nH]1 [FLUOROURACIL]	11.9 µM
CC(C)=CCc1c([C@H]2CCc3ccc(O)cc3O2)ccc(O)c1O [KAZINOL U]	51.1 µM
CC1(C)CCc2c([C@@H]3CCc4ccc(O)cc4O3)ccc(O)c2O1	44.7 µM
CC(C)=CCc1c([C@@H]2CCc3ccc(O)cc3O2)cc2c(c1O)OC(C)(C)C=C2 [KAZINOL B]	39 µM
CC1(C)CCc2c([C@H]3CCc4ccc(O)cc4O3)ccc(O)c2O1	41.7 µM
CC1(C)C=Cc2c([C@@H]3CCc4ccc(O)cc4O3)ccc(O)c2O1	75.7 µM
CC1(C)C=Cc2c([C@H]3CCc4ccc(O)cc4O3)ccc(O)c2O1	63.6 µM

What follows are molecules tested on Hep 3B2 (assay: Growth inhibition of human Hep3B cells after 48 hrs by MTT assay).
Format: functional, cell-based

Compound	growth inhibition (GI)
CC(C)=CCc1c([C@H]2CCc3ccc(O)cc3O2)ccc(O)c1O [KAZINOL U]	Dose-dependent effect
CC1(C)CCc2c([C@@H]3CCc4ccc(O)cc4O3)ccc(O)c2O1	Dose-dependent effect
CC(C)=CCc1c([C@@H]2CCc3ccc(O)cc3O2)cc2c(c1O)OC(C)(C)C=C2 [KAZINOL B]	Dose-dependent effect
CC1(C)CCc2c([C@H]3CCc4ccc(O)cc4O3)ccc(O)c2O1	Dose-dependent effect
CC1(C)C=Cc2c([C@@H]3CCc4ccc(O)cc4O3)ccc(O)c2O1	Dose-dependent effect
CC1(C)C=Cc2c([C@H]3CCc4ccc(O)cc4O3)ccc(O)c2O1	Dose-dependent effect

Each molecule was assayed on A549 (assay: Cytotoxicity against human A549 cells by MTT assay).
Format: functional, cell-based

Compound	IC50
CC(C)=CCc1c([C@H]2CCc3ccc(O)cc3O2)ccc(O)c1O [KAZINOL U]	> 100 µM
CC1(C)CCc2c([C@@H]3CCc4ccc(O)cc4O3)ccc(O)c2O1	> 100 µM
CC(C)=CCc1c([C@@H]2CCc3ccc(O)cc3O2)cc2c(c1O)OC(C)(C)C=C2 [KAZINOL B]	> 100 µM
CC1(C)CCc2c([C@H]3CCc4ccc(O)cc4O3)ccc(O)c2O1	> 100 µM
CC1(C)C=Cc2c([C@@H]3CCc4ccc(O)cc4O3)ccc(O)c2O1	> 100 µM
CC1(C)C=Cc2c([C@H]3CCc4ccc(O)cc4O3)ccc(O)c2O1	> 100 µM
